Test results published in PubChem BioAssay (NCI).
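Each compound was tested at five concentrations against cells in 96-well plates for 48 hours. GI50 = concentration required for 50% inhibition of growth. TGI: total growth inhibition.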

Columns and labels:
Experiment in all cases: NCI tumour cell line growth inhibition, 48 h
ACHN renal = test system: ACHN renal
HCT-116 colon = test system: HCT-116 colon
KM12 colon = test system: KM12 colon
M14 melanoma = test system: M14 melanoma
NCI-H23 lung = test system: NCI-H23 lung
OVCAR-3 ovarian = test system: OVCAR-3 ovarian
OVCAR-8 ovarian = test system: OVCAR-8 ovarian
RPMI-8226 leukemia = test system: RPMI-8226 leukemia
SK-MEL-28 melanoma = test system: SK-MEL-28 melanoma
SNB-19 CNS = test system: SNB-19 CNS

Row | Compound | GI50 (ACHN renal) | TGI (ACHN renal) | GI50 (HCT-116 colon) | TGI (HCT-116 colon) | GI50 (KM12 colon) | TGI (KM12 colon) | GI50 (M14 melanoma) | TGI (M14 melanoma) | GI50 (NCI-H23 lung) | TGI (NCI-H23 lung) | GI50 (OVCAR-3 ovarian) | TGI (OVCAR-3 ovarian) | GI50 (OVCAR-8 ovarian) | TGI (OVCAR-8 ovarian) | GI50 (RPMI-8226 leukemia) | TGI (RPMI-8226 leukemia) | GI50 (SK-MEL-28 melanoma) | TGI (SK-MEL-28 melanoma) | GI50 (SNB-19 CNS) | TGI (SNB-19 CNS)
1 | COc1cccc(/C=C/C(=O)c2ccc(SC)cc2)c1OC | 17.2 µM | 33.7 µM | 4.35 µM | 15.4 µM | 16.6 µM | 33.4 µM | 17.2 µM | 31.1 µM | 14.6 µM | 28.2 µM | 16.4 µM | 32 µM | 12.7 µM | 25.6 µM | 5.6 µM | > 100 µM | 20 µM | 36.7 µM | 16.2 µM | 32 µM
2 | Cc1ccc(-c2nc3ccccc3c(=O)n2NCC2(O)OCC(O)C(O)C2O)cc1 (stereo not given) |  | > 100 µM |  | > 100 µM |  | > 100 µM |  | > 100 µM |  | > 100 µM |  | > 100 µM |  | > 100 µM |  | > 100 µM |  | > 100 µM |  | > 100 µM
3 | N#Cc1c(NCc2ccccc2)nc(NCc2ccccc2)c(C#N)c1-c1ccc(O)cc1 | 16.9 µM | 57.1 µM | 14.5 µM | 34.1 µM | 16.8 µM | 59.7 µM | 29.9 µM | > 100 µM | 45.3 µM | > 100 µM | 29.6 µM | 87.4 µM | 58.1 µM | > 100 µM | 21.9 µM | > 100 µM | 66.7 µM | > 100 µM | 50.5 µM | > 100 µM
4 | CC1=C2CC(C)(C)/C=C\C(=O)/C(C)=C\C3=C[C@H](C)C[C@]3(O2)C1=O |  | 2.9 µM |  | 1.09 µM |  | 6 µM |  | 1.27 µM |  | 3.76 µM |  | 1.15 µM |  | 6.82 µM |  | 1.51 µM |  | 1.74 µM |  | 37.2 µM
5 | COC(=O)c1ccc2c(c1)C(=O)c1c-2n(CCCCl)c(=O)c2cc([N+](=O)[O-])ccc12 | 45.2 µM | > 100 µM | 42.1 µM | > 100 µM | > 100 µM | > 100 µM | 82.5 µM | > 100 µM | 94.6 µM | > 100 µM | 96.6 µM | > 100 µM | > 100 µM | > 100 µM | 84.5 µM | > 100 µM | > 100 µM | > 100 µM | 56.6 µM | > 100 µM
6 | COc1cc2c3cc1Oc1c(OC)c(OC)cc4c1C(=NCC4)Cc1ccc(cc1)Oc1cc(ccc1O)C[C@H]3N(C)CC2 |  | 83.5 µM |  | 26.8 µM |  | 29.8 µM |  | 29.8 µM |  | 44 µM |  | 39.4 µM |  | 32 µM |  | 47.5 µM |  | 30.3 µM |  | 61.6 µM
7 | CC1=CC(C)=NN=C(N)N1S(=O)(=O)c1cc(C)c(Cl)cc1SCc1ccccc1 | 24.4 µM | > 100 µM | 7.2 µM | > 100 µM | 34.6 µM | > 100 µM | 21.4 µM | > 100 µM | 14.2 µM | > 100 µM | 22.6 µM | > 100 µM | 56.6 µM | > 100 µM | 5.93 µM | > 100 µM | 88.5 µM | > 100 µM | 30.3 µM | > 100 µM
8 | O=C1C(=C(C(F)(F)Cl)C(F)(F)Cl)C2CCC1C2 (stereo not given) |  | 3.32 µM |  | 3.61 µM |  | > 8.65 µM |  | 2.38 µM |  | 4.63 µM |  | > 6.36 µM |  | 4.24 µM |  | > 3.16 µM |  | 3.96 µM |  | > 10 µM
9 | O=C/C1=C/C2=Cc3ccccc3C=C(/C=C(/C=O)C1)C2 |  | > 100 µM |  | 48.3 µM |  | > 100 µM |  | > 100 µM |  | > 100 µM |  | 98.4 µM |  | > 100 µM |  | > 100 µM |  | > 100 µM |  | > 100 µM
10 | CCN1CCC(Nc2ccnc3cc(Cl)ccc23)CC1 | 33.9 µM | > 100 µM | 8.82 µM | > 100 µM | 25.2 µM | > 100 µM | 14.4 µM | 29.3 µM | 74.1 µM | > 100 µM | 24.8 µM | > 100 µM | 34.8 µM | > 100 µM | 25.9 µM | 78.3 µM | 18.1 µM | 33.5 µM | 79.1 µM | > 100 µM
11 | CC(=O)O[C@H]([C@H](OC(C)=O)[C@H](C)OC(C)=O)[C@@H](/C=C/[C@@H]1CC=CC(=O)O1)OC(C)=O | > 100 µM | > 100 µM | 33.4 µM | > 100 µM | > 100 µM | > 100 µM | 42.6 µM | > 100 µM | 35.6 µM | > 100 µM | 17.1 µM | 41.9 µM | 40.6 µM | > 100 µM | 29.7 µM | 99.5 µM | 40.4 µM | > 100 µM | 59.5 µM | > 100 µM
12 | CCCCCCCCCCCCCCCCCc1nccn1CCOCCO | 5.95 µg/mL | 11.1 µg/mL | 5.94 µg/mL | 11.9 µg/mL | 6.06 µg/mL | 11.4 µg/mL | 6.69 µg/mL | 13 µg/mL | 4.73 µg/mL | 9.73 µg/mL | 4.74 µg/mL | 9.64 µg/mL | 5.64 µg/mL | 11.6 µg/mL | 3.87 µg/mL | 10.9 µg/mL | 6.22 µg/mL | 11.4 µg/mL | 5.03 µg/mL | 10.3 µg/mL
13 | CC(C)N1CCN(c2ccncc2S(=O)(=O)N2CCCCC2)CC1 |  | > 100 µM |  | > 100 µM |  | > 100 µM |  | > 100 µM |  | > 100 µM |  | > 100 µM |  | > 100 µM |  | > 100 µM |  | > 100 µM |  | > 100 µM
14 | CC(=O)Nc1cc2cc(N)ccc2oc1=O |  | > 100 µM |  | > 100 µM |  | > 100 µM |  | > 100 µM |  | > 100 µM |  | > 100 µM |  | > 100 µM |  | > 100 µM |  | > 100 µM |  | > 100 µM
15 | CCCCN1CCCC[C@@H]1C(=O)N[C@H](C(=O)N(C)[C@H](C[C@@H](OC(C)=O)c1nc(C(=O)NC2CCC(C(=O)OC)CC2)cs1)C(C)C)C(C)C (stereo not given in full) | 2.39 µM | > 25 µM | 1 µM | > 25 µM | 1.07 µM | > 25 µM | 0.983 µM | 18.1 µM | 1.5 µM | > 25 µM | 1.07 µM | > 25 µM | 2.1 µM | > 25 µM | 1.1 µM | > 25 µM | 17.9 µM | > 25 µM | 1.83 µM | > 25 µM
16 | O=C1C(=O)N(c2ccc(Cl)cc2)C(=O)C(=O)C1c1nc2ccccc2o1 |  | > 100 µM |  | > 100 µM |  | > 100 µM |  | > 100 µM |  | > 100 µM |  | > 100 µM |  | > 100 µM |  | > 100 µM |  | > 100 µM |  | > 100 µM
17 | O=C(CC1(O)C(=O)N(Cc2ccccc2)c2ccc(Cl)cc21)c1ccc(C(=O)NCC2CCC3(CC2)OOC2(CCCCC2)OO3)cc1 (stereo not given) | 0.18 µM | 0.357 µM | 1.3 µM | 4.29 µM | 0.268 µM | 0.782 µM | 2.52 µM | 17.3 µM | 0.204 µM | 0.477 µM | 0.197 µM | 0.419 µM | 0.295 µM | 0.758 µM | 0.462 µM | 2.18 µM | 8.35 µM | > 100 µM | 5.34 µM | > 100 µM
18 | COc1ccc(/C(=N\NC(=O)NN)C(c2ccc(OC)cc2)C2(O)C(=O)Nc3c(Cl)cc(Cl)cc32)cc1 (stereo not given) |  | > 100 µM |  | > 100 µM |  | > 100 µM |  | > 100 µM |  | > 100 µM |  | > 100 µM |  | > 100 µM |  | > 100 µM |  | > 100 µM |  | > 100 µM
19 | Oc1ccc(Nc2ccc3ccccc3c2)cc1 | 2.46 µM | 15.6 µM | 9.23 µM | 24 µM | 2.94 µM | 10 µM | 5.01 µM | 23.4 µM | 10.9 µM | 55.3 µM | 5.66 µM | 19 µM | 6.49 µM | 56.7 µM | 9.61 µM | > 100 µM | 14.1 µM | > 100 µM | 20.4 µM | > 100 µM
20 | O=C(CCl)NCCNc1nccc(Nc2ccc(S(=O)(=O)Nc3ccccn3)cc2)n1 | 2.6 µM | 10.8 µM | 1.54 µM | 5.53 µM | 3.12 µM | 11.6 µM | 1.72 µM | 4.69 µM | 2.04 µM | 6.11 µM | 1.77 µM | 6.17 µM | 3.84 µM | > 100 µM | 2.09 µM | 7.6 µM | 2.97 µM | 13.5 µM | 2.42 µM | 7.56 µM
